Laboratory results published in US20010051636A1, “Combination treatment for inhibiting bone loss” (priority 1994, published 2001).
Marks after values point to notes of the source that are not given here.

Assays:
Format in all cases: in vivo
[1] = test system: ovariectomized (ovex) rats; experiment: 5-week ovex rat model of post-menopausal osteoporosis: femur density by X-ray grey scale image analysis; settings: for anti-resorptive activity (in words): 0.1 mg/kg, each compound separately; for RANGE 0-60 (relative density of bone, femur X-ray grey scale): Table 3
Protocol: In the following, a model of post-menopausal osteoporosis was used in which effects of different treatments upon femur density were determined.
Seventy-five day old female Sprague Dawley rats (weight range of 225 to 275 g) were obtained from Charles River Laboratories (Portage, Mich.). They were housed in groups of 3 and had ad libitum access to food (calcium content approximately 1%) and water. Room temperature was maintained at 22.2°±1.7° C. with a minimum relative humidity of 40%. The photoperiod in the room was 12 hours light and 12 hours dark.
One week after arrival, the rats underwent bilateral ovariectomy under anesthesia (44 mg/kg Ketamine and 5 mg/kg Xylazine (Butler, Indianapolis, Ind.) administered intramuscularly). Treatment with vehicle or the indicated compound was initiated either on the day of surgery following recovery from anesthesia or 35 days following the surgery.
Oral dosage was by gavage in 0.5 mL of 1% carboxymethylcellulose (CMC).
(§1) Body weight was determined at the time of surgery and weekly during the study, and the dosage was adjusted with changes in body weight. Vehicle-treated ovariectomized (ovex) rats and non-ovariectomized (intact) rats were evaluated in parallel with each experimental group to serve as negative and positive controls.
(§2) The rats were treated daily for 35 days (6 rats per treatment group) and sacrificed by decapitation on the 36th day. […] At the time of sacrifice, the uteri were removed, dissected free of extraneous tissue, and the fluid contents were expelled before determination of wet weight in order to confirm estrogen deficiency associated with complete ovariectomy. […] The uteri were then placed in 10% neutral buffered formalin to allow for subsequent histological analysis.
The right femurs are excised and scanned at the distal metaphysis proximal from the growth plate region by grey scale image analysis of digitalized X-ray generation on a Nicolet NXR-1200 real time X-ray imaging system.

[2] = test system: ovariectomized (ovex) rats; experiment: Uterine wet weight in the ovex rat study BBA-9311
Protocol: as §2

[3] = Body weight change in the ovex rat study BBA-9311
Protocol: as §1

[4] = Table 1, 1 mg/kg PO CDX, 47KV/4.5C, 35 days

Compound	RANGE 0-50 (relative density of bone, femur X-ray grey scale) [1, 4]	Ave Ut Wt ([2]; Table 4 BBA-9311, 1 mg/kg)	Ave Ut Wt ([2]; Table 4 BBA-9311, .1 mg/kg)	anti-resorptive activity (in words) [1]	Ave BW Chg ([3]; Table 4 BBA-9311, 1 mg/kg)	Ave BW Chg ([3]; Table 4 BBA-9311, .1 mg/kg)	other results
CC(=O)O[C@]1(C(C)=O)CC[C@H]2[C@@H]3C[C@H](C)C4=CC(=O)CC[C@]4(C)[C@H]3CC[C@@]21C [Provera]	30.10						protection from bone loss (in words) ([1]; 10 mg/kg, by itself): protective effect; RANGE 0-50 (relative density of bone, femur X-ray grey scale) ([1]; Table 1, 10 mgmg/kg PO CDX, 47KV/4.5C, 35 days): 64.16*
Cl.O=C(c1ccc(OCCN2CCCCC2)cc1)c1c(-c2ccc(O)cc2)sc2cc(O)ccc12 [RAL, [6-hydroxy-2-(4-hydroxyphenyl)benzo[b]thien-3-yl][4-[2-(1-piperidinyl)ethoxy]phenyl]methanone hydrochloride]	57.67*	166.000	157.667	inactive	49.667	75.833	RANGE 0-50 (relative density of bone, femur X-ray grey scale) ([1]; Table 2, 1 mg/kg PO CDX): 80.98*; RANGE 0-60 (relative density of bone, femur X-ray grey scale) ([1]; 0.1 mg/kg PO CDX, 47KV/4.5C): 36.76; RANGE 0-60 (relative density of bone, femur X-ray grey scale) ([1]; 1 mg/kg PO CDX): 40.37
NCCCC(O)(P(=O)(O)O)P(=O)(O)O [ALN, Alendronate]		108.667	100.833	inactive	106.000	102.167	
C#C[C@]1(O)CC[C@H]2[C@@H]3CCc4cc(O)ccc4[C@H]3CC[C@@]21C [EE2, ethynylestradiol]							Ave Ut Wt ([2]; Table 4, 100 μg/kg): 399.000; RANGE 0-50 (relative density of bone, femur X-ray grey scale) ([1]; Table 1, 100 μg/kg PO CDX): 51.29*; RANGE 0-50 (relative density of bone, femur X-ray grey scale) ([1]; Table 2, 30 μg/kg PO CDX): 50.87; RANGE 0-50 (relative density of bone, femur X-ray grey scale) ([1]; Table 2, 100 μg/kg PO CDX): 61.09*; RANGE 0-60 (relative density of bone, femur X-ray grey scale) ([1]; 100 μg/kg PO CDX): 62.88*; Ave BW Chg ([3]; Table 4, 100 μg/kg): 49.000
